A short description of the data set: wn = mass fraction of the nth substance listed. As to conditions: 298 K; 100 kPa; Liquid; Laser flash apparatus; w1 = 0.9.

± gives the expanded uncertainty stated by the source.

Take `CCCCCCCC/C=C\CCCCCCCC(=O)O` [(Z)-9-octadecenoic acid] + CCCCCCCCCCCCCC(=O)O: the thermal conductivity worked out at 0.2513 ± 0.0057 W/m/K.

Source of the values: the NIST ThermoML archive (doi:10.1016/j.tca.2018.11.010).
